Like-named read-outs stand apart in the source and are kept apart here.
Experiments:
A-431 = experiment: Cell proliferation GI50, A-431 cells (Table 6); assay type: cell-based
EGFR[T790M/C797S/L858R] = molecular target: T1, EGFR[T790M/C797S/L858R] (Homo sapiens, UniProt P00533, C797S/L858R/T790M); experiment: Inhibition of EGFR[T790M/C797S/L858R] biochemical enzymatic activity (HTRF); settings: EGFR T790M-C797S-L858R, 1 mM ATP, 1 h, room temperature, read-out: IC50 (nM) @T790M- C797S - L858R
T1 construct: purchased Carna Bio
T1 sequence (P00533 25-1210 T790M/C797S/L858R): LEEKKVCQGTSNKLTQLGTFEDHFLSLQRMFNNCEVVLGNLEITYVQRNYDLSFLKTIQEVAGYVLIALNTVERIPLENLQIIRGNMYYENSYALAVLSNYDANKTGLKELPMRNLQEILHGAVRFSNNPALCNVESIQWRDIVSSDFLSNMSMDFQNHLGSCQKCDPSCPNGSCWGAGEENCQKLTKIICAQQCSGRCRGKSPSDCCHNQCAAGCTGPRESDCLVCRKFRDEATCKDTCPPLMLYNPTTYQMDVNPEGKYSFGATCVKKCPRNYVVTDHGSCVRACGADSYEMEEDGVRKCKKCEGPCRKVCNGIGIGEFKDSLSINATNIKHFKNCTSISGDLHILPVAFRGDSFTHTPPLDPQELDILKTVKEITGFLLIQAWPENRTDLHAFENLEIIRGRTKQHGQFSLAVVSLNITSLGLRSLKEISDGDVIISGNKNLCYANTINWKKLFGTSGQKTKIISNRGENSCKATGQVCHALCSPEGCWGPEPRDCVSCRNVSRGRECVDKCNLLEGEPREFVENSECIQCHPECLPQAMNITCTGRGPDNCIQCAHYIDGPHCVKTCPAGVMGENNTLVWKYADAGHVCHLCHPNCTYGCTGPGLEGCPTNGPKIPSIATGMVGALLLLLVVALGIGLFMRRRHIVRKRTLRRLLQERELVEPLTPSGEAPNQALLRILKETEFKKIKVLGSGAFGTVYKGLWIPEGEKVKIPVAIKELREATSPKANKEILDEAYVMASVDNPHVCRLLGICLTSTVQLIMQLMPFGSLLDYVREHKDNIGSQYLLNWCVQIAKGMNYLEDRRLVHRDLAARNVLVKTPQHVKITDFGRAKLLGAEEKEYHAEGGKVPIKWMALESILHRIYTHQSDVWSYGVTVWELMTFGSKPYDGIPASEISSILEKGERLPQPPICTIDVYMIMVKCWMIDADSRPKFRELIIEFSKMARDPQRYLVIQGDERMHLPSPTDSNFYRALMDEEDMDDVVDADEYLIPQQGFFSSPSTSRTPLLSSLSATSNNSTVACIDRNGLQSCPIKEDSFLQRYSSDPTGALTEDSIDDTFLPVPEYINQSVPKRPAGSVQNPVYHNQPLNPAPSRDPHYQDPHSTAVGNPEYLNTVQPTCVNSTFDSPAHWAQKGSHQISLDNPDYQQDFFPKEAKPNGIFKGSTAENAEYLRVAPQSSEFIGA
Method in brief: (§1)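 In a buffer with 5 mM MgCl2, 1 mM MnCl2, 1 mM DTT and 0.01% CHAPS, enzyme turnover of 1 μM biotinylated TK substrate at 1 mM ATP is followed by HTRF after 1 h at room temperature. IC50 is obtained by a four-parameter fit.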

EGFR (d746-750 C797S) = molecular target: T2, EGFR (d746-750 C797S) (Homo sapiens, UniProt P00533, C797S/DEL746-750); experiment: Inhibition of EGFR (d746-750 C797S) biochemical enzymatic activity (HTRF); settings: EGFR Del19-C797S, 1 mM ATP, 1 h, room temperature, read-out: IC50 (nM) @Del19-C797S
T2 construct: purchased signalchem
Method in brief: as §1

EGFR Exon19Del = molecular target: T3, EGFR Exon19Del (Homo sapiens, UniProt P00533, DEL746-750); experiment: Inhibition of EGFR Exon19Del biochemical enzymatic activity (HTRF); settings: EGFR Del19, 1 mM ATP, 1 h, room temperature, read-out: IC50 @Del19
T3 construct: purchased Carna Bio
Method in brief: as §1

EGFR Exon19Del/T790M = molecular target: T4, EGFR Exon19Del/T790M (Homo sapiens, UniProt P00533, DEL746-750/T790M); experiment: Inhibition of EGFR Exon19Del/T790M biochemical enzymatic activity (HTRF); settings: EGFR Del19-T790M, 1 mM ATP, 1 h, room temperature, read-out: IC50 (nM) @Del19-T790M
T4 construct: purchased Carna Bio
T4 sequence (P00533 with tags, fused parts or gaps DEL746-750/T790M limits assumed): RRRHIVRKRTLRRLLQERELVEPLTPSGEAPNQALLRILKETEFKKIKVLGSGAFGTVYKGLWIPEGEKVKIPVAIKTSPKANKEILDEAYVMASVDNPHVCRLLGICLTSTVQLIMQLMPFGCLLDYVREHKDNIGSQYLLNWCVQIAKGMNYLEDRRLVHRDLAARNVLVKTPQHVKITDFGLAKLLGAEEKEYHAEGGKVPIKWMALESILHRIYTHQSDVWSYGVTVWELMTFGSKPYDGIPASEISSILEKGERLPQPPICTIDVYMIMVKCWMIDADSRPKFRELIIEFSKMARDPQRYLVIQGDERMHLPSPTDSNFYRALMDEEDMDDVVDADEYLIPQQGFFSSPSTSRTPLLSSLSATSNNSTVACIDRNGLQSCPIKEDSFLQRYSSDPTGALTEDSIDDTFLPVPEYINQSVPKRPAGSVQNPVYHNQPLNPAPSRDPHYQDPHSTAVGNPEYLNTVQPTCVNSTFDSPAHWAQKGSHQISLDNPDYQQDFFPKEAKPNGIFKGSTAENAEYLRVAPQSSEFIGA
Method in brief: as §1

PC-9 = experiment: Cell proliferation assay, PC-9 cells (CellTiter-Glo, 72 hours); assay type: cell-based; settings: PC9 cells, CellTiter-Glo, read-out: PC9 GI50
Method in brief: (§2)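 In RPMI1640 medium (PC-9 with 10% FBS), each cell line was seeded at its own density: Ba/F3 5000 and PC-9 500 per well. A compound series was added the next day, with a time-zero viability plate read in parallel. Percent proliferation was subtracted for G0 and referenced to DMSO, and GI50 was derived by curve fitting.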

[1] = test system: Ba/F3 cells expressing EGFR mutations; experiment: Cell proliferation assay, Ba/F3 cells expressing EGFR mutations (CellTiter-Glo, 72 hours); assay type: cell-based; settings: CellTiter-Glo
Method in brief: as §2

[2] = molecular target: T5, EGFR[T790M/C797S/d746-750] (Homo sapiens, UniProt P00533, C797S/DEL746-750/T790M); experiment: Inhibition of EGFR[T790M/C797S/d746-750] biochemical enzymatic activity (HTRF); settings: EGFR T790M-C797S-Del19, 1 mM ATP, 1 h, room temperature, read-out: IC50 (nM) @T790M - C797S - Del19
T5 construct: purchased Carna Bio
T5 sequence (P00533 with tags, fused parts or gaps DEL746-750/T790M/C797S limits assumed): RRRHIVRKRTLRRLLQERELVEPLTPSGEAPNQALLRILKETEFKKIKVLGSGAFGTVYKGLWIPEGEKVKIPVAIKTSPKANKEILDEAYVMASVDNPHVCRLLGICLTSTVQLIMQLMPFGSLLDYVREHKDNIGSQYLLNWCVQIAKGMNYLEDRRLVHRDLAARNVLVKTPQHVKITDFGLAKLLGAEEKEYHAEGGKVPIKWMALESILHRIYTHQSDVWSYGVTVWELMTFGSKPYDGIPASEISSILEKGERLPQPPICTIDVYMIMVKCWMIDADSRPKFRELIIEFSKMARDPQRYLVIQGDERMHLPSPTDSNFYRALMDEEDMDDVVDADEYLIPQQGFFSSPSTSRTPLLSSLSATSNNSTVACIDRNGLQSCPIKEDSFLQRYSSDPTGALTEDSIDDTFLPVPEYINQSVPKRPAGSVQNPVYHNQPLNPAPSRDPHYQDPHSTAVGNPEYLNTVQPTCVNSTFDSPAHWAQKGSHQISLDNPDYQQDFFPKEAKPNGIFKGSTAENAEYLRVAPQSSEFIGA
Method in brief: as §1

EGFR L858R = molecular target: T6, EGFR L858R (Homo sapiens, UniProt P00533, L858R); experiment: Inhibition of EGFR L858R biochemical enzymatic activity (HTRF); settings: 1 mM ATP, 1 h, room temperature, read-out: IC50 (nM) @L858R
T6 construct: purchased Carna Bio
T6 sequence (P00533 25-1210 L858R): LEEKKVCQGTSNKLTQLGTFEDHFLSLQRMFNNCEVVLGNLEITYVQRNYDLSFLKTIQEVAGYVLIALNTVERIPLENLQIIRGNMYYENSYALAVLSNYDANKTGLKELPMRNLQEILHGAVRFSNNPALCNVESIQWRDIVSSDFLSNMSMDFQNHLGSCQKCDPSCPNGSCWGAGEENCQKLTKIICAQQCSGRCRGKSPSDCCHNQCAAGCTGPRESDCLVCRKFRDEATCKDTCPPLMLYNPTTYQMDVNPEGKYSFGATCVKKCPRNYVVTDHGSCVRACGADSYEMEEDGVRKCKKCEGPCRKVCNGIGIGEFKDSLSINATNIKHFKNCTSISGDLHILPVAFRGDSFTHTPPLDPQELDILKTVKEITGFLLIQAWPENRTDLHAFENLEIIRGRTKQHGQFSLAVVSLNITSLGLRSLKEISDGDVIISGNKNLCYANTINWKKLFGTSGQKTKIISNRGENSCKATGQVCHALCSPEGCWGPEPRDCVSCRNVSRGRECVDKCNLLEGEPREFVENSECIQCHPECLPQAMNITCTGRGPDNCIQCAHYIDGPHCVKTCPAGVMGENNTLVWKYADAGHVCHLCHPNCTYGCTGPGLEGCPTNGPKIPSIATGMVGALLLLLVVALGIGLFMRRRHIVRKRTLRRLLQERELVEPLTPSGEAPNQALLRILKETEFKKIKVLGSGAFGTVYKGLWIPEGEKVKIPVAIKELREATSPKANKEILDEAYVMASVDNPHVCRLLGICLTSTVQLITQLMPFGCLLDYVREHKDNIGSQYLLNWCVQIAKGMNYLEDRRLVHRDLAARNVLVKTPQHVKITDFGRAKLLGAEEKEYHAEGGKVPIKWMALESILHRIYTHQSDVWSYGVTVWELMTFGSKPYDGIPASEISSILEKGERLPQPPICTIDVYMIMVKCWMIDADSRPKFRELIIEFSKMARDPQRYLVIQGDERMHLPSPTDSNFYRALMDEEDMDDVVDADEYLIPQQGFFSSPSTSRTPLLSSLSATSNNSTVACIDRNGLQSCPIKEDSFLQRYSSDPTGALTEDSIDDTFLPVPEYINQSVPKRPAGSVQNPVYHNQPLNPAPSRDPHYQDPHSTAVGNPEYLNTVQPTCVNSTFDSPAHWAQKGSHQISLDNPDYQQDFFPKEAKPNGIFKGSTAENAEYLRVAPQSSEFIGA
Method in brief: as §1

EGFR (C797S L858R) = molecular target: T7, EGFR (C797S L858R) (Homo sapiens, UniProt P00533, C797S/L858R); experiment: Inhibition of EGFR (C797S L858R) biochemical enzymatic activity (HTRF); settings: EGFR L858-C797S, 1 mM ATP, 1 h, room temperature, read-out: IC50 (nM) @L858-C797S
T7 construct: purchased signalchem
Method in brief: as §1

EGFR wild type = molecular target: T8, EGFR wild type (Homo sapiens, UniProt P00533); experiment: Inhibition of EGFR wild type biochemical enzymatic activity (HTRF); settings: EGFR WT, 1 mM ATP, 1 h, room temperature, read-out: IC50 (nM) @WT
T8 construct: purchased Carna Bio
Method in brief: as §1

EGFR L858R/T790M = molecular target: T9, EGFR L858R/T790M (Homo sapiens, UniProt P00533, L858R/T790M); experiment: Inhibition of EGFR L858R/T790M biochemical enzymatic activity (HTRF); settings: EGFR L858R-T790M, 1 mM ATP, 1 h, room temperature, read-out: IC50 (nM) @L858R-T790M
T9 construct: purchased Carna Bio
T9 sequence (P00533 25-1210 T790M/L858R): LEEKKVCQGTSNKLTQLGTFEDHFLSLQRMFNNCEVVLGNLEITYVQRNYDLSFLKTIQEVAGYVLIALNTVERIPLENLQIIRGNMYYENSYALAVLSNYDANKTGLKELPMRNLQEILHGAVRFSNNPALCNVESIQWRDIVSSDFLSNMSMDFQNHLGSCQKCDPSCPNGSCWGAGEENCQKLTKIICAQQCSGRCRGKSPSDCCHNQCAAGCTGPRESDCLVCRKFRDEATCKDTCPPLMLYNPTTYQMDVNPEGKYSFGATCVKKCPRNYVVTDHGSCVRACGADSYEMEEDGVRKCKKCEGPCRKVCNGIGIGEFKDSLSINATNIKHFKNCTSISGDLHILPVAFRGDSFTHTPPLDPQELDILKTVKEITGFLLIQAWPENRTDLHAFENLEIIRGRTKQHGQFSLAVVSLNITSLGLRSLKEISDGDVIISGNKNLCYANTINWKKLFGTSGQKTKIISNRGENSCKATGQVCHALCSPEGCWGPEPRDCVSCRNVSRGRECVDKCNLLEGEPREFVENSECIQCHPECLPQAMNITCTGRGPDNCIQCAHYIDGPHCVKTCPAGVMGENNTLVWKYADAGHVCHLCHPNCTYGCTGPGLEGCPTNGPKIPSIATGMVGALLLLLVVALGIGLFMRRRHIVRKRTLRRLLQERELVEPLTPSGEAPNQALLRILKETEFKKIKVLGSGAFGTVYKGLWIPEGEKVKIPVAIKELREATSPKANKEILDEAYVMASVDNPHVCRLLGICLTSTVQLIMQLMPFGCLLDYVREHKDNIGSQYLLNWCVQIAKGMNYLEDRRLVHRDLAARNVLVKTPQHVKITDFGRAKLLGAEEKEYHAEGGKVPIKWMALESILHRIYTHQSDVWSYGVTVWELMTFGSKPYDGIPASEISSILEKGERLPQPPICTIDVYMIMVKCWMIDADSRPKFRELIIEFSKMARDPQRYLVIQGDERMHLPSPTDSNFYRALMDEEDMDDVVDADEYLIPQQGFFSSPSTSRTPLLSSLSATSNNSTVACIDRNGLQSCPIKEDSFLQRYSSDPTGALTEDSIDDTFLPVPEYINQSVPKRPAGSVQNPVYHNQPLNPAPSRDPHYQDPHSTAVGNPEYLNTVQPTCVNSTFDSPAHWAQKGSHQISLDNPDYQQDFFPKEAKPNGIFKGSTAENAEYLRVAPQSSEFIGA
Method in brief: as §1

[3] = BaF3 cells, EGFR DEL19-C797S, read-out: DEL19-C797S/BaF3 GI50
[4] = BaF3 cells, EGFR DEL19-T790-C797S, read-out: DEL19-T790-C797S/BaF3 GI50
[5] = BaF3 cells, EGFR L858R, read-out: L858R/BaF3 GI50
[6] = BaF3 cells, EGFR L858R-C797S, read-out: L858R-C797S/BaF3 GI50
[7] = BaF3 cells, EGFR L858R-T790-C797S, read-out: L858R-T790-C797S/BaF3 GI50
[8] = BaF3 cells, EGFR L858R-T790M, read-out: L858R-T790M/BaF3 GI50
[9] = EGFR DEL19-T790M, read-out: DEL19-T790M GI50
[10] = Homo sapiens, A-431, A-431 cells
[11] = Mus musculus, BaF3, 72 h, BaF3 cells, EGFR DEL19-C797S, read-out: DEL19-C797S/BaF3 GI50
[12] = Mus musculus, BaF3, 72 h, BaF3 cells, EGFR DEL19-T790-C797S, read-out: DEL19-T790-C797S/BaF3 GI50
[13] = Mus musculus, BaF3, 72 h, BaF3 cells, EGFR L858R, read-out: L858R/BaF3 GI50
[14] = Mus musculus, BaF3, 72 h, BaF3 cells, EGFR L858R-C797S, read-out: L858R-C797S/BaF3 GI50
[15] = Mus musculus, BaF3, 72 h, BaF3 cells, EGFR L858R-T790-C797S, read-out: L858R-T790-C797S/BaF3 GI50
[16] = Mus musculus, BaF3, 72 h, BaF3 cells, EGFR L858R-T790M, read-out: L858R-T790M/BaF3 GI50
[17] = Mus musculus, BaF3, 72 h, EGFR DEL19-T790M, read-out: DEL19-T790M GI50

| SMILES | GI50 (A-431; A-431 cells) [nM] | IC50 (EGFR[T790M/C797S/L858R]) [nM] | IC50 (EGFR (d746-750 C797S)) [nM] | IC50 (EGFR Exon19Del) [nM] | IC50 (EGFR Exon19Del/T790M) [nM] | GI50 (PC-9) [nM] | GI50 [1, 3] [nM] | GI50 [1, 4] [nM] | GI50 [1, 5] [nM] | GI50 [1, 6] [nM] | GI50 [1, 7] [nM] | GI50 [1, 8] [nM] | GI50 [1, 9] [nM] | IC50 [2] [nM] | IC50 (EGFR L858R) [nM] | IC50 (EGFR (C797S L858R)) [nM] | IC50 (EGFR wild type) [nM] | IC50 (EGFR L858R/T790M) [nM] | GI50 (A-431; [10]) [nM] | GI50 (PC-9; Homo sapiens, PC-9, 72 h) [nM] | also measured |
| --- | --- | --- | --- | --- | --- | --- | --- | --- | --- | --- | --- | --- | --- | --- | --- | --- | --- | --- | --- | --- | --- |
| CN1CC2(C1)CN(c1ccc3nc4n(c3c1)C13CCC(CN(CCOc5c(cnn5C)-c5cc(cn(C)c5=O)C(=O)N4)C1)C3)C2 (single isomer, unassigned) [Example A92A] | 2100 | > 5000 | 449 | 573 | > 5000 | 522 | 102 | 112 | 113 | 122 | 152 | 310 | 80 | 3960 | 1150 | 2790 | > 5000 | > 5000 | – | – | – |
| CN(C)C1CN(c2ccc3nc4n(c3c2)C23CCC(CN(CCOc5c(cnn5C)-c5cc(cn(C)c5=O)C(=O)N4)C2)C3)C1 (single isomer, unassigned) [Example A65B] | 538 | 1.8 | 0.97 | 0.94 | 1.7 | 5.6 | 0.71 | 2.2 | 2.7 | 3.5 | 2.8 | 11 | 2.4 | 1.7 | 16 | 7.4 | 148 | 2.4 | – | – | – |
| C[C@@H]1CCCOc2c(cnn2C)-c2cc(cn(C)c2=O)C(=O)Nc2nc3ccc(N4CCNCC4)cc3n2C1 [Example A55] | – | 7.2 | 1.8 | 3.7 | 3.7 | – | – | – | – | – | – | – | – | 4.4 | 16 | 8.4 | 103 | 8.4 | 1280 | 51 | GI50 [1, 11]: 4.6 nM; GI50 [1, 12]: 25 nM; GI50 [1, 13]: 26 nM; GI50 [1, 14]: 31 nM; GI50 [1, 15]: 29 nM; GI50 [1, 16]: 52 nM; GI50 [1, 17]: 36 nM |
| Cn1ncc2c1OCCN1CC3CCC(C3)(C1)n1c(nc3ccc(N4CCN(C5COC5)CC4)cc31)NC(=O)c1cc-2c(=O)n(C)c1 (single isomer, unassigned) [Example A71B] | 830 | 2.9 | 1.3 | 1.8 | 2.5 | 6.6 | 0.66 | 2 | 2.9 | 4.2 | 2.2 | 8 | 1.9 | 2.4 | 14 | 20 | 319 | 2.8 | – | – | – |
| Cn1ncc2c1OCCN1CCCCC(C1)n1c(nc3ccccc31)NC(=O)c1cc-2c(=O)n(C)c1 (stereo not drawn) [Example A8, 15,21-Dimethyl-23-oxa-2,9,11,15,20,21,26-heptaazahexacyclo[24.4.1.1^{13,17}.0^{2,10}.0^{3,8}.0^{18,22}]dotriaconta-3,5,7,9,13,17(32),18(22),19-octaene-12,16-dione] | – | > 5000 | 256 | 368 | 290 | – | – | – | – | – | – | – | – | 226 | > 5000 | 3550 | > 5000 | > 5000 | 3880 | 180 | GI50 [1, 11]: 93 nM; GI50 [1, 12]: 401 nM; GI50 [1, 13]: 180 nM; GI50 [1, 14]: 332 nM; GI50 [1, 15]: 214 nM; GI50 [1, 16]: 977 nM; GI50 [1, 17]: 256 nM |
| CCn1cc2cc(c1=O)-c1cnn(C)c1OCCC[C@@H](C)Cn1c(nc3ccc(N4CCN(C)CC4)cc31)NC2=O [Example A14, (11R)-26-Ethyl-5,11-dimethyl-16-(4-methylpiperazin-1-yl)-7-oxa-4,5,13,20,22,26-hexaazapentacyclo[22.3.1.0^{2,6}.0^{13,21}.0^{14,19}]octacosa-1(28),2(6),3,14,16,18,20,24-octaene-23,27-dione] | – | > 5000 | 63 | 144 | 132 | – | – | – | – | – | – | – | – | 59 | > 5000 | > 5000 | > 5000 | > 5000 | 2240 | 152 | GI50 [1, 11]: 57 nM; GI50 [1, 12]: 356 nM; GI50 [1, 13]: 305 nM; GI50 [1, 14]: 188 nM; GI50 [1, 15]: 459 nM; GI50 [1, 16]: 866 nM; GI50 [1, 17]: 462 nM |
